We go through 6 compounds from patent EP4813463A2, “TYK2 INHIBITORS AND COMPOSITIONS AND METHODS THEREOF” (Lynk Pharmaceuticals Co. Ltd., priority 2023, dated 2024).

Data set [1] has as its system Ba/F3-FL-TYK2-P760L cells. As to the kind of experiment: Anti-proliferative assay in engineered Ba/F3 cells (Cell-Titer Glo, 72 h). Type of data set: cell-based. The note with it: 72 h compound treatment, concentration that causes 50% growth inhibition, read-out: Baf3-FL-T2P760L. An outline of the steps:
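IC50 from luminescent ATP viability after 72 h compound exposure (37 °C, 5% CO2), % inhibition normalised to DMSO-treated cells minus medium blank. IL-3-free Ba/F3-FL-TYK2-P760L (Tel-JAK fusion) cells in 10% FBS RPMI-1640 received 9 three-fold doses, top 20 µM, 0.1% DMSO.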

The target in another data set is T1, TYK2-JH2 domain (Homo sapiens, UniProt P29597).
T1 construct: JAK1-JH2 domain or TYK2-JH2 domain enzyme in assay buffer
Briefly: Binding activity test for JH2 domain of TYK2 (Tb-antibody/tracer FRET). The note with it: for IC50: JH2 domain enzyme, 60 min at 25°C, then 4°C overnight, read-out: TYK2 JH2 Binding IC50; for JAK1/TYK2 selectivity: ratio of JAK1 JH2 to TYK2 JH2 binding IC50. An outline of the steps: (§1)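 IC50 values (nM) come from TR-FRET readings taken after a 25°C incubation followed by overnight at 4°C. Each well held JH2 domain protein, Tb-antibody, tracer and test compound titrated in 11 threefold steps, with DMSO high and low controls.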

Data set [2] is described as follows: Microsomal metabolic stability assay. The following applies: human, liver microsomes, pH 7.4, 0.5 mg/mL microsomal protein, 1 µM test article, 2 mM NADPH. Type of data set: in vitro ADME. The procedure, abridged: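 Test or control compound (1 µM) incubated with microsomes (0.5 mg/mL protein) in 100 mM potassium phosphate pH 7.4, 1.0 mM EDTA at 37°C, started with NADPH regenerating system (2 mM NADPH). Sampled at 0, 5, 15, 30, 45 min, acetonitrile-quenched, LC/MS/MS. T1/2 from ln %remaining vs time slope; CLint = 0.693/T1/2 per mg protein/mL.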

For another data set, the target named is T2, JAK1-JH2 domain (Homo sapiens, UniProt P23458).
T2 construct: JAK1-JH2 domain or TYK2-JH2 domain enzyme in assay buffer
As to the kind of experiment: Binding activity test for JH2 domain of JAK1 (Tb-antibody/tracer FRET). The note with it: JH2 domain enzyme; 60 min at 25°C, then 4°C overnight; read-out: JAK1 JH2 Binding IC50. An outline of the steps: as §1

Another data set deals with pSTAT1. Briefly: Phosphorylation inhibition of STAT in human whole blood (IFN-alpha stimulated, flow cytometry). The note with it: T-cell, 20 min, IFN-alpha stimulation 20 mins, CD3 T cells, read-out: pSTAT1 inhibition in hWB (IC50). It counts as cell-based. The procedure, abridged:
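Fresh human whole blood stimulated 20 min with human universal type I IFN-alpha, then fixed, permeabilised and stained for CD3 and pSTAT1 (Y701). pSTAT1 in T cells read by flow cytometry; IC50 from 4-parameter logistic fit.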

For another data set, the system named is TYK2 pathway. Briefly: IFN-γ release in NK92 cells stimulated by IL-12 (ELISA). Type of data set: cell-based. The note with it: IL-12 2.5ng/mL stimulation 15hrs, IFN-γ in supernatant by ELISA. The method, then:
IFN-γ Release in NK92 Cells Stimulated by IL-12
Purpose: To evaluate the inhibition activity of TYK2 inhibitors in NK92 cells on TYK2 pathway through ELISA method.
Procedure: 1) Seeding NK92 cells into 96-well plate, cell density is 1.5E5 cells/well, 100uL/well; 2)Add prepared test articles into indicated wells, 50uL/well, and continue incubate for 1h, at 37°C; 3) After compound treatment, add 50uL/well IL-12 into indicated wells, final concentration of IL-12 is 2.5ng/mL; 4)Incubate cytokine stimulated cells at 37°C for another 15hrs in CO2 incubator; 5) After cytokine stimulation, transfer culture supernatant into a new plate and centrifuge for 5min at 350x g, and detect IFN-γ concentration in the supernatant with ELISA kit; 6) Data analysis with GrapdPad Prism6.0 software. Table 5. IC50 Values of Exemplary Compounds on TYK2 Pathway

A short description of another data set: Kinetic solubility. Type of data set: physicochemical. The note with it: phosphate buffer, pH 7.4, aqueous buffer, kinetic from dmso stock, 100 mM pH 7.4 phosphate buffer, 1% DMSO, room temperature, read-out: Kinetics Solubility_PBS7.4. An outline of the steps:
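Compounds diluted from 10 mM/5 mM DMSO stocks into 100 mM phosphate buffer pH 7.4 (1% DMSO final), shaken 2 h at room temperature, then centrifuged. Dissolved compound in supernatant quantified by LC-MS/MS against a standard curve.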

For the next data set, the system named is IFNa pSTAT1. Briefly: Phosphorylation of STAT1 inhibition in HMC3 cells with HTRF assay. It counts as cell-based. The following applies: Homo sapiens, HMC3 microglia cells, 50ng/mL hINFα 1 hour, read-out: HTRF_HMC3 IC 50 (IFNa pSTAT1). The method, then:
Seeding HMC3 cells into 96-well plate and incubate overnight. Pre-stimulation with recombinant human IFNα (Sino biological, H08Y), treat cells with compound with different concentration for 1hr. After compound treatment, stimulate cells with 50ng/mL hINFα for another 1 hour (for CCF-STTG1 cells IFNα induction time is 30 mins). After compound treatment and cytokine stimulation, dump old medium and lyse cells with supplemented lysis buffer provided by the HTRF kit (Revvity, 63ADK026PEG) for 30 min at room temperature under shaking. After homogenization by pipetting up and down, transfer 16 µL of cell lysate from the 96-well cell-culture plate to a small volume white 384-well plate, and then add 4 µL of pre-mixed two ready-to-use antibody working solution into each wells. Cover the plate with a plate sealer and incubate it overnight at room temperature. Read the fluorescence emission at two different wavelengths (665nm and 620nm) on microplate reader (Molecular Device, SpectraMax i3X). Collect data and analyzed with GraphPad Prism.

Data set [3] is described as follows: Brain pharmacokinetic studies in rats. It counts as in vivo, Sprague-Dawley rats. The following applies: for half-life / Kp / AUC: rats, iv, solution; for Kp: read-out: Brain AUC/Systemic AUC; for brain exposure in Rats: result in words. The method, then:
Pharmacokinetic profiles of test articles were evaluated in fasted Sprague-Dawley rats. Different kinds of formulations were designed to ensure test articles fully dissolved and wouldn't precipitate in 1:10 SGF or FaSSIF dilution. Typically, Rats were dosed with 3 mg/kg and 5 mg/kg by intravenous injection and oral gavage, respectively. The animal was restrained manually at the designated time points, approximately 150 µL of blood sample was collected via jugular vein for serial bleeding into K2EDTA tubes. The blood samples were maintained in wet ice first and centrifuged to obtain plasma (2000g, 4°C, 5 min) within 30 minutes post sampling. Anesthetizing the rat with the Isoflurane vaporizer to 2%~3% and place its back on the operation table. Spread the animal limbs and pin the limbs on the operation table. Make a cut along the sternum about 4cm long, low enough to expose the sternum's end. Expose the heart and use a 25-gauge needle connected with a 20 mL syringe filled with 20 mL of cold saline to pierce the left ventricle. Maintain the placement of the needle, and slowly push the syringe plunger to wash the brain with saline. The perfusion will be finished within about 2 min and then take the brain out of the body carefully without damaging the tissue. Dry the tissue on filtrate paper, which should be placed on ice, and then weigh the brain tissue and store at -70 °C and analyzed by LC/MS/MS for quantification. PK parameter values, including, but not necessarily limited to, the maximum plasma concentrations (Cmax), and the area under the plasma concentration vs. time curve (AUC) from time zero to 24-hour (AUC0-24h) were determined using WinNonlin program. Table 13. Systemic Pharmacokinetic Parameters in Sprague-Dawley Rats

Where [4] appears, read: Sprague-Dawley, rat, brain, 3 mg/kg.
The mark [5] stands for this setting: Sprague-Dawley, rat, brain, 2 mg/kg.

≈ marks a conversion by molar mass, not a printed value. Read-outs that look alike come from different tables or passages of the source.

T2 sequence (P23458 583-855 limits assumed): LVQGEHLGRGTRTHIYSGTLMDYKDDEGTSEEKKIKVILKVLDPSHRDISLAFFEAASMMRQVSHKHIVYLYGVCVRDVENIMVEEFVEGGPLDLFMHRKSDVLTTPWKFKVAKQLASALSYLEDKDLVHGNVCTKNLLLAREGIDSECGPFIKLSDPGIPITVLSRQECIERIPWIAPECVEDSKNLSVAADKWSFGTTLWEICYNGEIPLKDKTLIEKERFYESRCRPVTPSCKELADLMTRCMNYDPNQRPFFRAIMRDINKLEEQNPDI
T1 sequence (P29597 589-875 limits assumed): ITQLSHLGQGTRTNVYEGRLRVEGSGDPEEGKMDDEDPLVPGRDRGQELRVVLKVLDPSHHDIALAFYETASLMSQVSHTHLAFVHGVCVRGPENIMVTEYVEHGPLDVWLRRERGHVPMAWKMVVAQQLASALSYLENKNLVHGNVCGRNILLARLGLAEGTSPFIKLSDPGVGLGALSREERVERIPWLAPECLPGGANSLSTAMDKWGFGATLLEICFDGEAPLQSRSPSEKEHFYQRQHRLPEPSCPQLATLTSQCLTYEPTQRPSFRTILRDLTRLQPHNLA

Take `[2H]C([2H])([2H])NC(=O)c1cnc(NC(=O)[C@@H]2C[C@@H]2F)cc1Nc1cnn2ccc(C(O)C(F)(F)F)c(OC)c12` (single isomer, unassigned) [Example 15A, 6-((1S,2S)-2-fluorocyclopropane-1-carboxamido)-4-((4-methoxy-5-((S*)-2,2,2-trifluoro-1-hydroxyethyl)pyrazolo[1,5-a]pyridin-3-yl)amino)-N-(methyl-d3)nicotinamide]: the IC50 in data set [1] was 10.6 nM; at TYK2-JH2 domain, 0.078 nM; on JAK1-JH2 domain, 12.5 nM; with pSTAT1, 34.8 nM; in the data set with TYK2 pathway, 15.7 nM. Moreover, at TYK2-JH2 domain, the JAK1/TYK2 selectivity is on record as 160.8. Further, in data set [2] (read-out: Human LM Clint), the microsomal CLint at 1 µM was 11.9 µL/min/mg. Besides, the half-life at 1 µM in data set [2] (read-out: Human LM T1/2) stood at 1.94 h. Besides, the solubility kinetic at 2 h in “Kinetic solubility” came out at 23.9 µM (≈ 11.9 µg/mL).

On to `CCn1nc(Nc2cc(NC(=O)C3CC3)ncc2C(=O)OC)c2c(OC)c(C(O)C(F)(F)F)ccc21` (single isomer, unassigned) [Example 70A, Methyl (S*)-6-(cyclopropanecarboxamido)-4-((1-ethyl-4-methoxy-5-(2,2,2-trifluoro-1-hydroxyethyl)-1H-indazol-3-yl)amino)nicotinate], for which the IC50 is 2.35 nM in data set [1] (Mus musculus, BaF3, 72 h); 0.15 nM on TYK2-JH2 domain; less than 0.061 nM in the data set on IFNa pSTAT1; 21.8 nM at JAK1-JH2 domain; 43.7 nM in the data set with pSTAT1. At TYK2-JH2 domain, the JAK1/TYK2 selectivity turned out to be 145.12.

With `COC(=O)c1cnc(NC(=O)C2CC2)cc1Nc1cnn2ccc([C@H](O)C(F)(F)F)c(OC)c12` [Example 26, Methyl (5)-6-(cyclopropanecarboxamido)-4-((4-methoxy-5-(2,2,2-trifluoro-1-hydroxyethyl)pyrazolo[1,5-a]pyridin-3-yl)amino)nicotinate], the IC50 was found to be 35.2 nM in data set [1] (Mus musculus, BaF3, 72 h); 0.183 nM at TYK2-JH2 domain; 61.9 nM at JAK1-JH2 domain; 17.6 nM with TYK2 pathway. The JAK1/TYK2 selectivity on TYK2-JH2 domain is given as 338.1. Also, the half-life in data set [3] (setting [4]) is 1.99 h; in data set [3] (Sprague-Dawley, rat, systemic (plasma), 3 mg/kg), 1.53 h. Moreover, in [3] (setting [4]), the Kp stood at 0.11. The AUC in data set [3] (Sprague-Dawley, rat, systemic (plasma), 3 mg/kg, read-out: AUC) is 1290 ng·h/mL; in data set [3] (brain, 3 mg/kg) it was 140 ng·h/g. Moreover, in data set [3], the “brain exposure in Rats” value was “good brain exposure”.

Regarding `[2H]C([2H])([2H])NC(=O)c1cnc(NC(=O)C2CC2)cc1Nc1cnn2ccc([C@H](OC(C)=O)C(F)(F)F)c(OC)c12` [Example 43, (S)-1-(3-((2-(cyclopropanecarboxamido)-5-((methyl-d3)carbamoyl)pyridin-4-yl)amino)-4-methoxypyrazolo[1,5-a]pyridin-5-yl)-2,2,2-trifluoroethyl acetate], the IC50 in data set [1] (Mus musculus, BaF3, 72 h) is 20.6 nM; on TYK2-JH2 domain, 0.175 nM; at JAK1-JH2 domain, 71.3 nM; in the data set with pSTAT1, 174 nM; in the data set with TYK2 pathway it was 22.6 nM. Further, the JAK1/TYK2 selectivity on TYK2-JH2 domain is given as 407.2. Moreover, the solubility kinetic at 2 h in the data set “Kinetic solubility” stood at 33.3 µM.

Turning to `[2H]C([2H])([2H])CC(=O)c1cnc(NC(=O)C2CC2)cc1Nc1nn(C)c2ccc([C@H](O)C(F)(F)F)c(OC)c12` [Example 54A, (S)-N-(4-((4-methoxy-1-methyl-5-(2,2,2-trifluoro-1-hydroxyethyl)-1H-indazol-3-yl)amino)-5-(propanoyl-3,3,3-d3)pyridin-2-yl)cyclopropanecarboxamide], the IC50 in data set [1] (Mus musculus, BaF3, 72 h) is 0.577 nM; at TYK2-JH2 domain, 0.118 nM; with IFNa pSTAT1 it was less than 0.061 nM; on JAK1-JH2 domain, 3.82 nM; with pSTAT1 it was 10.8 nM. Also, at TYK2-JH2 domain, the JAK1/TYK2 selectivity is 32.37. Moreover, the half-life in data set [3] (setting [5]) is 1.64 h; in data set [3] (Sprague-Dawley, rat, systemic (plasma), 2 mg/kg), 1.7 h. In data set [3] (setting [5]), the Kp turned out to be 0.18. For the same compound, the AUC in data set [3] (Sprague-Dawley, rat, systemic (plasma), 2 mg/kg, read-out: AUC) came to 1060 ng·h/mL; in data set [3] (brain, 2 mg/kg), 188 ng·h/g. In addition, the “brain exposure in Rats” value in data set [3] is listed as “good brain exposure”.

`COCC(OC)c1ccc2c(c(Nc3cc(NC(=O)C4CC4)ncc3C(=O)OC)nn2C)c1OC` (stereo not drawn) [Example 159, Methyl 6-(cyclopropanecarbonylamino)-4-[[5-(1,2-dimethoxyethyl)-4-methoxy-1-methyl-indazol-3-yl]amino]pyridine-3-carboxylate]: the IC50 in [1] (Mus musculus, BaF3, 72 h) was determined as 6.29 nM; at TYK2-JH2 domain, 0.203 nM; in the data set on IFNa pSTAT1, 0.082 nM; at JAK1-JH2 domain it was 8.21 nM; with pSTAT1, 129 nM. Also, the JAK1/TYK2 selectivity at TYK2-JH2 domain turned out to be 40.45.
